Measured values published in patent US11058700B2, “Macrocyclic lactones and uses thereof as modulators of purinergic receptors” (City of Hope, priority 2015, dated 2021).

Legend:
4T1.2 cells = assay: Cytosolic Ca2+ flux; type: cell-based, mouse
Method: Cytosolic Ca^2+ flux. Cancer cells in suspension were washed with PBS and loaded with 1 μM Rhod-3 AM (Life Technologies, R10145) for 30 min at room temperature in the dark. Cells were washed with PBS couple of times and treated with various doses of Ivermectin in R10 medium. Cells were incubated for 15 min to 4 h in 5 ml FACS tubes at 37° C. and 5% CO2, followed by immediate flow cytometry analysis of fluorescence in the PE channel. Chelating of extracellular and intracellular Ca^2+ was performed by supplementing the Ivermectin treatment medium with 1 mM EDTA (USB Corp, 15694) or by adding 20 μM BAPTA-AM (Tocris, 2787) to the Rhod-3 AM loading solution, respectively.

[1] = system: 4T1.2 breast cancer cells; assay: Flow cytometry of mode of cell death (Annexin V / 7AAD); type: cell-based, mouse; details: Ivermectin-treated breast cancer cells
Method: FIGS. 1A-1H. Ivermectin kills breast cancer cells through a mixed apoptotic and necrotic mechanism. FIG. 1A: Mouse (4T1.2) and human (MDA-MB-231) TNBC cells manifest similar sensitivity to Ivermectin. Viability of cells treated with various doses of Ivermectin for 24 h. FIG. 1B: Extended exposure time reduces IC50 values to as low as 2 μM. 4T1.2 cells were seeded at 100 cells/well and individual colonies were counted after a week. Cancer cells were exposed to Ivermectin during the initial 24 h or during the entire duration of the assay. FIG. 1C: MDA-MB-231 breast cancer cells manifest higher sensitivity to Ivermectin compared to normal non-transformed human foreskin fibroblasts (HFFs). FIG. 1D: Flow cytometry analysis showing that cell death proceeds through two distinct pathways: a directly necrotic 7AAD-single positive or Annexin V/PS-single positive apoptotic pathway. FIG. 1E: Kinetics of necrotic versus apoptotic killing of 4T1.2 breast cancer cells. FIG. 1F: Ivermectin-induced cell death can be reversed by inhibition of various controlled cell death pathways. […]
Cell viability. […] Following treatment the plates were washed once with PBS and cell viability was measured using the acid phosphatase assay. […] Absorption at 405 nm was measured within 10 min using a multi-well plate reader. Mode of cell death and viability of cells in suspension was evaluated using flow cytometry. […]

[2] = system: 4T1.2 breast cancer cells; assay: Cytosolic Cl- influx; type: cell-based; details: mouse 4T1.2 cells
Method: Cytosolic Cl^− influx. Cancer cells in suspension were treated with various doses of Ivermectin in R10 medium for 1h at 37° C. and 5% CO2. Cells were then washed with PBS and loaded with 10 μM SPQ probe (Life Technologies, M440) in a hypotonic buffer containing 50% PBS and 50% double distilled water. Following brief 15 min incubation at room temperature in the dark cells were washed once with PBS and immediately analyzed by flow cytometry measuring fluorescence in the AF350 channel.

TNBC cells = assay: Extracellular ATP release; type: cell-based, mouse, human
Method: FIGS. 3A-3G. Dual roles of ATP and purinergic signaling in Ivermectin's killing. FIG. 3A: Depletion of extracellular ATP with Apyrase (2500 μunits/ml) exacerbates killing of 4T1.2 cell by Ivermectin. FIG. 3B: Extracellular Ca^2− and ATP contain Ivermectin-induced cell swelling. 4T1.2 cells were treated with 32 μM Ivermectin for 4 h in the presence of 1 mM EDTA or 2500 μunits/ml Apyrase. FIG. 3C: Ivermectin (0.5-32 μM) and high concentrations of extracellular ATP (0.3-3 mM) synergistically open pannexin-1 channels and permeabilize the membrane on live cells (7AAD-positive dead cells were gated out). 4T1.2 cells were treated for 30 min as indicated in the presence of 7 AAD and 5 μM YOPRO-1. FIG. 3D: Analysis of supernatants from Ivermectin-treated murine and human TNBC cells showing rapid release of ATP followed by its transient depletion. Depletion of extracellular ATP with Apyrase (2500 μunits/ml) was used as a positive control. […]
Extracellular ATP release. […] The cancer cells engineered to stably express the membrane-bound Luciferase were treated with Ivermectin for 30 min-4 h and luminescence was measured in the presence of 2 μM Luciferin. ATP concentration in Ivermectin treated supernatants was measured using ATP determination kit (Life Technologies, A22066) following manufacturers' instructions.

CC[C@H](C)[C@H]1O[C@]2(CC[C@@H]1C)C[C@@H]1C[C@@H](C/C=C(\C)[C@@H](O[C@H]3C[C@H](OC)[C@@H](O[C@H]4C[C@H](OC)[C@@H](O)[C@H](C)O4)[C@H](C)O3)[C@@H](C)/C=C/C=C3\CO[C@@H]4[C@H](O)C(C)=C[C@@H](C(=O)O1)[C@]34O)O2 [Ivermectin] was tested, and the “cytosolic Ca2+” value (4T1.2 cells) was “sustained increases in cytosolic Ca^2+”, the “dying cancer cells directly necrotic (7AAD-positive)” value [1] was “More than 90%” and the “cytosolic Cl- influx” value [2] was “Cl^− influx”. For the same compound, the “extracellular ATP levels in supernatants” value (TNBC cells) was “immediate increase in extracellular ATP levels”.
